Reference: US4296126A, “3-Aryloxy-3-aryl-propaneamines and their method of use” (Roussel Uclaf, priority 1978, dated 1981)
Where a name gives a salt, the structure may show the parent alone.

Columns and labels:
[1] = tested on: dogs; assay: Anorexigenic activity in dogs (method of Adams et al); type: in vivo, dog; settings: Canis lupus familiaris, po, compound given in lieu of first ball, balls offered every 10 minutes for 7 hours, activity grew with increasing doses, read-out: dose at which anorexigenic activity was shown (refusal of food balls)
Protocol: The anorexigenic activity was studied in dogs using the method of Adams et al [J. Pharm. Sci., Vol. 53, (1964), p. 1405]. On the day of the test with the compound presumed to be anorexigenic, the individual daily ration of the animal was divided into about equal balls (10 to 20 g) which were offered to the dog every 10 minutes for 7 hours. Normally, the animal will regularly accept the successive balls when they are presented.

[2] = Acute toxicity, LD50 in mice after intraperitoneal administration; settings: mouse, in vivo, ip, determined 48 hours after administration
Protocol: The LD50 or lethal dose at which 50% of the animals died after intraperitoneal administration of the test compound to mice was determined 48 hours after the administration.

CN(C)CCC(Oc1ccc([N+](=O)[O-])cc1)c1ccccc1 (centres unmarked) [Example 1, N,N-dimethyl-γ-(4-nitrophenoxy)-benzene-propanamine oxalate]
minimal effective dose [1]: 3 mg/kg | LD50 at 48 h [2]: ~75 mg/kg
